Assay results taken from US20130225430A1, “METHODS AND COMPOSITIONS FOR TREATMENT OF TOX-3 AND TFF-1 MEDIATED CANCER PATHOGENESIS” (CEDARS-SINAI MEDICAL CENTER, priority 2012, published 2013).

Assays:
[1] = test system: ERα binding to ERE I, ERE II, and ERE III; details: reported ER ChIP studies (ref. 46); cited from earlier work
[2] = test system: TFF1 gene expression in MCF-7 cells; assay: TFF1 expression by quantitative RT-PCR in MCF-7 cells transfected with TOX3 or vector control; details: for Effect on TFF1 expression compared to untreated control cells: MCF7 cells, normal culture conditions (not estrogen depleted); for TOX3 induction of TFF1 expression: resistant or sensitive to the drug: TOX3 transfected MCF7 cells, estrogen depleted medium, 36 hours
Description: Measurement of TFF1 induction by TOX3. […] MCF7 cells were transfected with a TOX3 expression vector or vector control, switched to estrogen depleted-medium after 8 hours in the presence or absence of the indicated drug, and analyzed by quantitative RT-PCR for TFF1 gene expression after an additional 36 hours in culture.

Structure (SMILES)	ER binding at ERE I, II, and III sites upstream of TFF1 and TMPRSS3 [1]	Effect on TFF1 expression compared to untreated control cells [2]	TOX3 induction of TFF1 expression: resistant or sensitive to the drug [2]
CC/C(=C(\c1ccccc1)c1ccc(OCCN(C)C)cc1)c1ccccc1 [tamoxifen]	residual binding	decrease	resistant
C[C@]12CC[C@@H]3c4ccc(O)cc4C[C@@H](CCCCCCCCC[S+]([O-])CCCC(F)(F)C(F)(F)F)[C@H]3[C@@H]1CC[C@@H]2O (stereo partly drawn) [fulvestrant]	residual binding	decrease	sensitive
